Data set [1] is described as follows: Relaxivity measurements at 1.4 T (MiniSpec mq60, 60 MHz, 37 °C) in water and human plasma. In kind it is physicochemical. Conditions: 1.41 T, normalized to Gd. Put shortly:
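T1 by inversion recovery and T2 by CPMG, relaxation delay ≥5×T1, at three Gd concentrations between 0.05 and 2 mM in water or fresh citrated human plasma. Relaxivities r1, r2 taken as slopes of relaxation rate versus Gd concentration, verified by ICP-MS.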

Data set [2] can be described thus: Water solubility (exploratory, 10 mM Tris-HCl, 20 °C). Format: physicochemical. Particulars: water (10 mM Tris-HCl buffer), pH 7.4. Here is the method: The exploratory water solubilities of the compounds were determined at room temperature (20° C.) in 0.5 mL buffer solution (10 mM Tris-HCl) in the microcentrifuge tubes (Eppendorf, 2.0 mL safe-lock caps). The solid compounds were added stepwise to the buffer solution. The suspension was mixed using a shaker (Heidolph Reax 2000) and treated 5 min in an ultrasound bath (Bandelin, Sonorex Super RK255H).

Data set [3] can be described thus: Gd-complex stabilities in human plasma at 37 °C, 15 d (released Gd3+ by HPLC-ICP-MS). Format: in vitro ADME. Here is the method: Gd-Complex Stabilities in Human Plasma at 37° C., 15 d
Example 1 was separately dissolved in human plasma at 1 mmol Gd/L. As a reference for released Gd^3+ 0.1 mmol/L Gadolinium chloride (GdCl3) was dissolved in human plasma. The plasma samples were incubated for 15 days at 37° C. under 5% CO2 atmosphere to maintain the pH at 7.4. Aliquots were taken at the start and end of the incubation. The amount of Gd^3+ released from the complexes was determined by HPLC-ICP-MS. Column: Chelating Sepharose (HiTrap, 1 mL). Solvent A: 10 mM BisTris-HCl pH 6.0. Solvent B: 15 mM HNO3. Gradient: 3 min at 100% A, from 3 to 10 min at 100% B. Flow 1 mL/min. Detection by ICP-MS, tuned to ^158Gd. The chromatograms, displaying the intensity of the detected Gd, were evaluated by peak area analysis. The size of the peak of Gd^3+, eluting after the change from solvent A to B, was recorded. For Example 1 the increase of this peak and thus the release of Gd^3 after 15 days was below the limit of quantification (<0.1% of the injected total amount of Gadolinium). Example 1 is stable under physiological conditions.

Data set [4] in a line: Dynamic CT diffusion phantom study (dialysis cassette in fetal bovine serum). Conditions: dialysis cassette 20,000 MWCO, 20 mmol Gd/L, CT signal over 30 h. In kind it is physicochemical. The gist of the method: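 Contrast agent at 20 mmol Gd/L in a 20 kDa MWCO dialysis cassette was placed in fetal bovine serum. Diffusion was followed by clinical CT at 100 kV and 104 mA at time points from 0 min to 30 h. Regions of interest were drawn on one central 2.4 mm slice per time point.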

Data set [5] is described as follows: Relaxivity measurements at 3.0 T (whole body MRI scanner, 37 °C) in water and human plasma. In kind it is physicochemical. Particulars: normalized to Gd, average ± standard deviation. Here is the method: Relaxivity Measurements at 3.0 T
Relaxivity measurements at 3.0 T were performed with a whole body 3.0 T MRI Scanner (Philips Intera, Philips Healthcare, Hamburg, Germany) using a knee-coil (SENSE-Knee-8, Philips Healthcare, Hamburg, Germany). The sample tubes (CryoTubetm Vials, Thermo Scientific 1.8 mL, Roskilde, Denmark) were positioned in 3 rows of 4 and 5 tubes in a plastic holder in a box filled with water. The temperature was adjusted to 37° C. For the MRI sequence the shortest possible echo-time (TE) with 7.46 milliseconds was used. The inversion times were chosen to optimize the sequence to measure T1 values corresponding to the estimated T1 range of all relaxation times of contrast media containing solutions. The following inversion times (TIs) were applied: 50, 100, 150, 200, 300, 500, 700, 1000, 1400, 2100, 3200, and 4500 milliseconds. The sequence was run with a constant relaxation delay of 3.4 seconds after the registration of the last echo (variable TR in the range from 3450 to 7900 milliseconds). For details of the fit procedure, see Rohrer et. al. (Invest. Radiol. 2005; 40, 11: 715-724). The experimental matrix of the phantom measurement was 320×320.
The relaxivities were evaluated using three different concentrations of each compound (3 concentrations between 0.05 and 2 mM).
The T1 relaxation times of Example compounds were measured in water and human plasma. Human plasma preparation: For each experiment fresh blood was taken from a volunteer using 10 mL citrate-tubes (Sarstedt S-Monovette 02.1067.001, 10 mL, Citrate). The 10 mL citrate-tubes were carefully inverted 10 times to mix blood and anticoagulant and centrifuged for 15 minutes at 1811 g at room temperature (Eppendorf, Centrifuge 5810R).
The relaxivities ri (where i=1, 2) were calculated on the basis of the measured relaxation rates Ri in water and plasma: Ri=Ri(0)+ri[CGd], where Ri(0) represent the relaxation rate of the respective solvent and CGd the concentration of the compound normalized to the Gadolinium (Table 2).

Data set [6] is described as follows: Chemical stability: autoclaving at 121 °C for 20 min in 10 mM Tris-HCl pH 7.4, HPLC-ICP-MS. In kind it is physicochemical. Conditions: 5 mmol Gd/L in 10 mM Tris-HCl pH 7.4, 121 °C. Here is the method:
The aliquot removed before and after autoclaving was analyzed by HPLC-ICP-MS to determine the integrity of the compound.
HPLC: Column: Hypercarb 2.5 mm×15 cm. Solvent A: 0.1% formic acid in water. Solvent B: acetonitrile. Gradient from 100% A to 5% A+95% B in 10 min. Flow 1 ml/min. Detection by ICP-MS, tuned to ^158Gd. The chromatograms, displaying the intensity of the detected Gd, were visually compared. No changes in the chromatograms before and after autoclaving were detected. The compound was stable during the autoclaving procedure.

Where only a bound is given, the exact number is not on record here.

`CN(CC(=O)NCC(CNC(=O)CN(C)C(=O)CN1CCN(CC(=O)[O-])CCN(CC(=O)[O-])CCN(CC(=O)[O-])CC1)(CNC(=O)CN(C)C(=O)CN1CCN(CC(=O)[O-])CCN(CC(=O)[O-])CCN(CC(=O)[O-])CC1)CNC(=O)CN(C)C(=O)CN1CCN(CC(=O)[O-])CCN(CC(=O)[O-])CCN(CC(=O)[O-])CC1)C(=O)CN1CCN(CC(=O)[O-])CCN(CC(=O)[O-])CCN(CC(=O)[O-])CC1.[Gd+3].[Gd+3].[Gd+3].[Gd+3]` [Example 1, Tetragadolinium [4,10-bis(carboxylatomethyl)-7-{3,13-dimethyl-8,8-bis({[(methyl{[4,7,10-tris(carboxylatomethyl)-1,4,7,10-tetraazacyclododecan-1-yl]acetyl}amino)-acetyl]amino}methyl)-2,5,11,14-tetraoxo-15-[4,7,10-tris(carboxylatomethyl)-1,4,7,10-tetraazacyclododecan-1-yl]-3,6,10,13-tetraazapentadec-1-yl}-1,4,7,10-tetraazacyclo-dodecan-1-yl]acetate] returned a r1 human plasma in data set [1] (human plasma) of 11.7 L/mmol/s. In data set [1] (water), this molecule showed a r1 water of 10.1 L/mmol/s. The molecule further showed a Solubility in data set [2] above 1000 mg/100 mL. Besides, in data set [3] (1 mmol Gd/L, pH 7.4, below the limit of quantification), the “release of Gd3+ after 15 days” value is on record as < 0.1 % of the injected total amount of Gadolinium. Moreover, in data set [3] (15 days), the “stability under physiological conditions” value is recorded as “stable”. Also, in data set [4], the “Diffusion half-live (20 kDa)” value is recorded as 10.4 h. This molecule showed a r1 human plasma in data set [5] (human plasma) of 10.3 ± 0.2 L/mmol/s. Moreover, the r1 water in data set [5] (water) was found to be 9.1 ± 0.1 L/mmol/s. In addition, in data set [6], the “appearance of the solution after autoclaving” value is “clear and colorless”; the “changes in the chromatograms (HPLC-ICP-MS) before and after autoclaving” value is given as “No changes”; the “stability during the autoclaving procedure” value was “stable”.

The values above are taken from patent US10975060B2, “High relaxivity gadolinium chelate compounds for use in magnetic resonance imaging” (BAYER PHARMA AKTIENGESELLSCHAFT, priority 2016, dated 2021).
